Experimental data taken from patent publication US20250296938A1, “Compounds that Interact with the Ras Superfamily for the Treatment of Cancers, Inflammatory Diseases, Rasopathies, and Fibrotic Disease” (SHY Therapeutics, LLC, priority 2018, published 2025).

How the values were obtained:
MAPK phosphorylation = assay: MAPK cell-based phosphorylation assay (ELISA or Western), PANC-1; conditions: Homo sapiens; 10 μM, 6 hours, EGF stimulation, PANC-1
Experimental: Cell lines: Tumor-derived pancreatic cancer cell line PANC-1 was purchased from ATCC and were and grown in DMEM-High Glucose supplemented with penicillin (100 U/mL), streptomycin (100 μg/mL), and 10% heat-inactivated FBS at 37° C. in a humidified incubator with 5% CO2.
Method: Cells were plated at 7500 cells/well density in a 96-well plate, allowed 3 hours to adhere to the plate, then starved in DMEM plus 0.5% FBS overnight. The small molecules to be tested were added to the cells in the final concentration of 10 μM in the presence of 0.3% DMSO for 6 hours incubation at 37° C. For IC50 value determination, serial dilutions of compounds were added to cells under the same conditions. Next, cells were stimulated with 1.5 ng/mL EGF for 15 minutes followed by cell fixation with 4% formaldehyde in PBS at room temperature for 20 minutes. Cell-direct ELISA determined phosphorylation level of MAPK.
Cell-direct ELISA: For each well, cells were permeabilized with 0.1% PBS-Triton X-100, quenched with 0.06% H2O2 in 0.1% PBS-Triton X-100, and probed with anti-phospho-MAPK antibodies (R&D Systems) followed by HRP-conjugated secondary antibody (Jackson Immunoresearch, West Grove, PA). Next, a 50 μM solution of the fluorescent substrate AmpliFlu Red (Sigma) was added and incubated at RT for 20 minutes. At the end of the incubation time, phosphorylation level of MAPK was determined by measuring fluorescence at 595 nm using SpectraMax M3 plate reader (Molecular Devices).
Cell lines: Human NSCLC cells NCI-H1975 and NCI-H1299, and tumor-derived pancreatic cancer cell lines Panc-1, MIA-PaCa-2, and BxPC3, were all purchased from American Type Culture Collection and grown in complete RPMI medium (BxPC3, NCI-H1975 and NCI-H1299) or DMEM-High Glucose (Panc1 and MIA-PaCa-2), supplemented with penicillin (100 U/mL), streptomycin (100 μg/mL), and 10% heat-inactivated FBS at 37° C. in a humidified incubator with 5% CO2.
(§1) Method: Cells were plated at 350000 cells/well density in a 12-well plate, allowed 3 hours to adhere to the plate, then starved in the appropriate medium in the presence of 0.5% FBS overnight. The small molecules to be tested were added to the cells in the final concentration of 10 μM in the presence of 0.3% DMSO for 6 hours incubation at 37° C. For IC50 value determination, serial dilutions of compounds were added to cells under the same conditions. Next, cells were stimulated with 1.5 ng/ml EGF for 15 minutes then cells were lysed with lysis buffer containing 1% Triton X-100, EDTA, and Halt™ Protease & Phosphatase Inhibitor Cocktail (Thermo Scientific). Protein concentration was assessed by BCA protein assay (Thermo Scientific). Phosphorylation level of MAPK was determined by western blot.
(§2) Western blot protocol: Equal amounts of protein (15-50 μg) were separated by SDS-PAGE and transferred to nitrocellulose membranes (Invitrogen by Thermo Fisher Scientific). The membrane was stained with Ponceau S Stain (Boston BioProducts) to verify uniform protein loading. Membranes were blocked with 10% milk and phosphorylation levels of MAPK were assessed by incubating overnight at 4° C. with anti-phospho-p44/42 (Thr202/Tyr204) antibody (Cell Signaling) followed by HRP-conjugated secondary antibody (Jackson Immunoresearch, West Grove, PA). Bands were incubated in Amersham ECL Prime Western Blotting Detection Reagent (GE Healthcare) and visualized using the ChemiDoc MP imaging system (Bio-Rad).

AKT phosphorylation = assay: Western AKT cell-based phosphorylation assay, PANC-1; conditions: Homo sapiens, 6 hours, EGF stimulation, PANC-1
Experimental: Human tumor-derived pancreatic cancer cell line Panc-1 was purchased from American Type Culture Collection and grown in complete DMEM-High Glucose supplemented with penicillin (100 U/mL), streptomycin (100 μg/mL), and 10% heat-inactivated FBS at 37° C. in a humidified incubator with 5% CO2.
as §1, with “C.” for “C. For IC50 value determination, serial dilutions of compounds were added to cells under the same conditions.”, “Akt” for “MAPK”
as §2, with “Akt” for “MAPK”, “anti-phospho-Akt (Ser473)” for “anti-phospho-p44/42 (Thr202/Tyr204)”

Structure (SMILES)	inhibition at 10 µM (MAPK phosphorylation) [%]	inhibition at 10 µM (AKT phosphorylation) [%]
COC1CCN(c2nc(-c3nccn3C)nc3sc(-c4ccn(C)n4)c(-c4ccccc4)c23)CC1 [drawing 410]	76 to 100	0
COCCCNc1nc(-c2nccn2C)nc2sc(-c3ccn(C)n3)c(-c3ccc(OC)cc3)c12 [drawing 411]	0	0
COCC(C)Nc1nc(-c2nccn2C)nc2sc(-c3ccn(C)n3)c(-c3ccc(OC)cc3)c12 (stereo not drawn) [drawing 412]	1 to 25	0
COc1ccc(-c2c(-c3ccn(C)n3)sc3nc(-c4nccn4C)nc(N4CCC(OC)C4)c23)cc1 (stereo not drawn) [drawing 413]	1 to 25	0
COC1CCN(c2nc(-c3nccn3C)nc3sc(-c4ccccc4Cl)c(-c4cscn4)c23)C1 (stereo not drawn) [drawing 415]	0	0
COc1cccc(-c2sc3nc(-c4nccn4C)nc(N4CCC(OC)C4)c3c2-c2cscn2)c1 (stereo not drawn) [drawing 417]	0	0
COCCNc1nc(-c2cn(C)cn2)nc2sc(-c3cccc(OC)c3Cl)c(-c3ccc(OC)cc3)c12 [drawing 423]	76 to 100	0
COCCNc1nc(-c2cn(C)cn2)nc2sc(-c3cc(OC)ccc3Cl)c(-c3ccc(OC)cc3)c12 [drawing 424]	76 to 100	76 to 100
COc1cc(-c2sc3nc(-c4nccn4C)nc(N4CCC(OC)C4)c3c2-c2ccccc2)ccn1 (stereo not drawn) [drawing 427]	51 to 75	0
COC1CCN(c2nc(-c3nccn3C)nc3sc(-c4ccnn4C)c(-c4ccccc4)c23)C1 (stereo not drawn) [drawing 428]	0	0
COC1CCN(c2nc(-c3nccn3C)nc3sc(-c4cccnc4)c(-c4ccccc4)c23)C1 (stereo not drawn) [drawing 429]	51 to 75	0
COc1ccc(-c2sc3nc(-c4nccn4C)nc(N4CCC(OC)C4)c3c2-c2ccccc2)cn1 (stereo not drawn) [drawing 430]	1 to 25	0
COc1ncccc1-c1sc2nc(-c3nccn3C)nc(N3CCC(OC)C3)c2c1-c1ccccc1 (stereo not drawn) [drawing 431]	76 to 100	0
COC1CCN(c2nc(-c3nccn3C)nc3sc(-c4cnc(C5CC5)o4)c(-c4ccccc4)c23)C1 (stereo not drawn) [drawing 432]	51 to 75	0
COCCn1cc(-c2sc3nc(-c4nccn4C)nc(N4CCC(OC)C4)c3c2-c2ccccc2)cn1 (stereo not drawn) [drawing 433]	51 to 75	0
COC1CCN(c2nc(-c3nccn3C)nc3sc(-c4ccncc4C)c(-c4ccccc4)c23)C1 (stereo not drawn) [drawing 434]	0	0
COC1CCN(c2nc(-c3nccn3C)nc3sc(-c4cnn(C)c4)c(-c4ccccc4)c23)C1 (stereo not drawn) [drawing 435]	1 to 25	0
COC1CCN(c2nc(-c3nccn3C)nc3sc(-c4ccc(CO)cc4)c(-c4ccccc4)c23)C1 (stereo not drawn) [drawing 436]	51 to 75	0
COC1CCN(c2nc(-c3nccn3C)nc3sc(-c4ccc(N)nc4C)c(-c4ccccc4)c23)C1 (stereo not drawn) [drawing 437]	26 to 50	0
COC1CCN(c2nc(-c3nccn3C)nc3sc(-c4ccccc4CO)c(-c4ccccc4)c23)C1 (stereo not drawn) [drawing 438]	0	0
COc1nscc1-c1sc2nc(-c3nccn3C)nc(N3CCC(OC)C3)c2c1-c1ccccc1 (stereo not drawn) [drawing 439]	51 to 75	0
